Measurements as given in ChEMBL document CHEMBL1126965, “Synthesis and vitro antibacterial activity of hygromycin a analogs modified at the C4 aryl position” (1993).
Converted amounts (≈) assume the structure as drawn.

The molecules below were run on Brachyspira hyodysenteriae (assay: In vitro antibacterial activity against Serpulina (Treponema) hyodysenteriae).
Type: functional
For `CC(=O)C1O[C@@H](Oc2ccc(/C=C(\C)C(=O)N[C@@H]3[C@H](O)[C@@H](O)[C@H]4OCO[C@H]4[C@@H]3O)cc2O)[C@@H](O)C1Sc1ccccc1` (some centres undefined), the MIC was over 100 µg/mL.
`C/C(=C\c1ccc(F)c(F)c1)C(=O)N[C@@H]1[C@H](O)[C@@H](O)[C@H]2OCO[C@H]2[C@@H]1O` was tested, and the MIC was over 200 µg/mL.
Work on `C/C(=C\c1ccc(N2CCCC2)cc1)C(=O)N[C@@H]1[C@H](O)[C@@H](O)[C@H]2OCO[C@H]2[C@@H]1O` yielded an MIC of 6.25 µg/mL (≈ 15.5 µM).
With `C/C(=C\c1ccc(OC2CCCC2)c(O)c1)C(=O)N[C@@H]1[C@H](O)[C@@H](O)[C@H]2OCO[C@H]2[C@@H]1O` the MIC was 6.25 µg/mL (≈ 14.4 µM).
For `C/C(=C\c1ccc(OCc2ccccc2)c(O)c1)C(=O)N[C@@H]1[C@H](O)[C@@H](O)[C@H]2OCO[C@H]2[C@@H]1O`, the MIC was 25 µg/mL (≈ 54.6 µM).
`C#CCOc1ccc(/C=C(\C)C(=O)N[C@@H]2[C@H](O)[C@@H](O)[C@H]3OCO[C@H]3[C@@H]2O)cc1O` was tested, and the MIC was 6.25 µg/mL (≈ 15.4 µM).
With `C=CC(C)Oc1ccc(/C=C(\C)C(=O)N[C@@H]2[C@H](O)[C@@H](O)[C@H]3OCO[C@H]3[C@@H]2O)cc1O` (some centres undefined) the MIC was 25 µg/mL (≈ 59.3 µM).
In the case of `C/C(=C\c1ccc(N2CCCC2)c(F)c1)C(=O)N[C@@H]1[C@H](O)[C@@H](O)[C@H]2OCO[C@H]2[C@@H]1O`, the MIC is reported as 6.25 µg/mL (≈ 14.8 µM).
Work on `C/C(=C\c1ccc(O)c(O)c1)C(=O)NC1[C@@H](O)[C@@H]2OCO[C@@H]2[C@H](O)[C@H]1O` (some centres undefined) yielded an MIC of 200 µg/mL (≈ 544 µM).
For `C/C(=C\c1cccc(O)c1)C(=O)N[C@@H]1[C@H](O)[C@@H](O)[C@H]2OCO[C@H]2[C@@H]1O`, the MIC was over 200 µg/mL.
For `COc1ccc(/C=C(\C)C(=O)N[C@@H]2[C@H](O)[C@@H](O)[C@H]3OCO[C@H]3[C@@H]2O)cc1O`, the MIC was 12.5 µg/mL (≈ 32.8 µM).
In the case of `CCCN(CC)c1ccc(/C=C(\C)C(=O)N[C@@H]2[C@H](O)[C@@H](O)[C@H]3OCO[C@H]3[C@@H]2O)cc1O`, the MIC is reported as over 200 µg/mL.
For `C=CCOc1ccc(/C=C(\C)C(=O)N[C@@H]2[C@H](O)[C@@H](O)[C@H]3OCO[C@H]3[C@@H]2O)cc1F`, the MIC was 1.56 µg/mL (≈ 3.81 µM).
`C=CCN(C(C)=O)c1ccc(/C=C(\C)C(=O)N[C@@H]2[C@H](O)[C@@H](O)[C@H]3OCO[C@H]3[C@@H]2O)cc1O` gave an MIC of over 200 µg/mL.
Molecule `C/C(=C\c1ccc(Cc2ccccc2)c(O)c1)C(=O)N[C@@H]1[C@H](O)[C@@H](O)[C@H]2OCO[C@H]2[C@@H]1O` has an MIC of over 200 µg/mL.
Work on `CCNc1ccc(/C=C(\C)C(=O)N[C@@H]2[C@H](O)[C@@H](O)[C@H]3OCO[C@H]3[C@@H]2O)cc1O` yielded an MIC of 100 µg/mL (≈ 254 µM).
Work on `C=CCOc1ccc(/C=C(\C)C(=O)N[C@@H]2[C@H](O)[C@@H](O)[C@H]3OCO[C@H]3[C@@H]2O)cc1O` yielded an MIC of 0.78 µg/mL (≈ 1.91 µM).
`C/C(=C\c1ccc(OCCF)c(O)c1)C(=O)N[C@@H]1[C@H](O)[C@@H](O)[C@H]2OCO[C@H]2[C@@H]1O` gave an MIC of 6.25 µg/mL (≈ 15.1 µM).
`C/C(=C\c1ccc(OCC(O)CO)c(O)c1)C(=O)N[C@@H]1[C@H](O)[C@@H](O)[C@H]2OCO[C@H]2[C@@H]1O` (some centres undefined) showed an MIC of 25 µg/mL (≈ 56.6 µM).
In the case of `CSC1C(C(C)=O)O[C@@H](Oc2ccc(/C=C(\C)C(=O)N[C@@H]3[C@H](O)[C@@H](O)[C@H]4OCO[C@H]4[C@@H]3O)cc2O)[C@H]1O` (some centres undefined), the MIC is reported as over 100 µg/mL.
`C#CCOc1ccc(/C=C(\C)C(=O)N[C@@H]2[C@H](O)[C@@H](O)[C@H]3OCO[C@H]3[C@@H]2O)cc1F` was tested, and the MIC was 6.25 µg/mL (≈ 15.3 µM).
Work on `C/C(=C\c1ccc(OCC(N)=O)c(O)c1)C(=O)N[C@@H]1[C@H](O)[C@@H](O)[C@H]2OCO[C@H]2[C@@H]1O` yielded an MIC of over 200 µg/mL.
With `CCOCOc1ccc(/C=C(\C)C(=O)N[C@@H]2[C@H](O)[C@@H](O)[C@H]3OCO[C@H]3[C@@H]2O)cc1O` the MIC was 25 µg/mL (≈ 58.8 µM).
With `CCCCOc1ccc(/C=C(\C)C(=O)N[C@@H]2[C@H](O)[C@@H](O)[C@H]3OCO[C@H]3[C@@H]2O)cc1O` the MIC was 1.56 µg/mL (≈ 3.68 µM).
Work on `CC(=O)[C@@H]1C[C@H](O)[C@H](Oc2ccc(/C=C(\C)C(=O)N[C@@H]3[C@H](O)[C@@H](O)[C@H]4OCO[C@H]4[C@@H]3O)cc2O)O1` yielded an MIC of over 100 µg/mL.
`CCCCCOc1ccc(/C=C(\C)C(=O)N[C@@H]2[C@H](O)[C@@H](O)[C@H]3OCO[C@H]3[C@@H]2O)cc1O` showed an MIC of over 200 µg/mL.
With `C=C(C)COc1ccc(/C=C(\C)C(=O)N[C@@H]2[C@H](O)[C@@H](O)[C@H]3OCO[C@H]3[C@@H]2O)cc1O` the MIC was 3.13 µg/mL (≈ 7.43 µM).
`C/C(=C\c1ccc(N)c(O)c1)C(=O)N[C@@H]1[C@H](O)[C@@H](O)[C@H]2OCO[C@H]2[C@@H]1O` showed an MIC of over 200 µg/mL.
For `C/C(=C\c1ccc(-c2ccccc2)cc1)C(=O)N[C@@H]1[C@H](O)[C@@H](O)[C@H]2OCO[C@H]2[C@@H]1O`, the MIC was 12.5 µg/mL (≈ 30.4 µM).
`C/C(=C\c1ccc(OCOCCO)c(O)c1)C(=O)N[C@@H]1[C@H](O)[C@@H](O)[C@H]2OCO[C@H]2[C@@H]1O` was tested, and the MIC was 25 µg/mL (≈ 56.6 µM).
With `CC(=O)C1=C[C@H](O)[C@H](Oc2ccc(/C=C(\C)C(=O)N[C@@H]3[C@H](O)[C@@H](O)[C@H]4OCO[C@H]4[C@@H]3O)cc2O)O1` the MIC was 25 µg/mL (≈ 50.7 µM).
`CCOc1ccc(/C=C(\C)C(=O)N[C@@H]2[C@H](O)[C@@H](O)[C@H]3OCO[C@H]3[C@@H]2O)cc1O` gave an MIC of 1.56 µg/mL (≈ 3.95 µM).

These molecules were tested on Brachyspira hyodysenteriae (assay: In vitro antibacterial activity against Serpulina (Treponema) hyodysenteriae was tested and is expressed as minimum inhibitory concentration: Value ranges from (0.39-0.78 ug/mL)).
Type: functional
Molecule `C/C(=C\c1ccc(OCC2CC2)c(O)c1)C(=O)N[C@@H]1[C@H](O)[C@@H](O)[C@H]2OCO[C@H]2[C@@H]1O` has an MIC of 0.39 µg/mL (≈ 0.925 µM).

What follows are molecules tested on Brachyspira hyodysenteriae (assay: In vitro antibacterial activity against Serpulina (Treponema) hyodysenteriae was tested and is expressed as minimum inhibitory concentration: Value ranges from (0.78-1.56 ug/mL)).
Type: functional
In the case of `CSCCCOc1ccc(/C=C(\C)C(=O)N[C@@H]2[C@H](O)[C@@H](O)[C@H]3OCO[C@H]3[C@@H]2O)cc1O`, the MIC is reported as 0.78 µg/mL (≈ 1.71 µM).
With `CC(=O)[C@H]1O[C@@H](Oc2ccc(/C=C(\C)C(=O)N[C@@H]3[C@H](O)[C@@H](O)[C@H]4OCO[C@H]4[C@@H]3O)cc2O)[C@@H](O)[C@@H]1O` [HYGROMYCIN A] the MIC was 0.78 µg/mL (≈ 1.52 µM).
`CCCOc1ccc(/C=C(\C)C(=O)N[C@@H]2[C@H](O)[C@@H](O)[C@H]3OCO[C@H]3[C@@H]2O)cc1O` showed an MIC of 0.78 µg/mL (≈ 1.91 µM).

What follows are molecules tested on Brachyspira hyodysenteriae (assay: In vitro antibacterial activity against Serpulina (Treponema) hyodysenteriae was tested and is expressed as minimum inhibitory concentration: Value ranges from ([…] ug/mL)).
Type: functional
In the case of `CC(=O)CCCOc1ccc(/C=C(\C)C(=O)N[C@@H]2[C@H](O)[C@@H](O)[C@H]3OCO[C@H]3[C@@H]2O)cc1O`, the MIC is reported as 12.5 µg/mL (≈ 27.7 µM).

These molecules were tested on Brachyspira hyodysenteriae (assay: In vitro antibacterial activity against Serpulina (Treponema) hyodysenteriae was tested and is expressed as minimum inhibitory concentration: Value ranges from (12.5-25 ug/mL)).
Type: functional
Molecule `C=CCNc1ccc(/C=C(\C)C(=O)N[C@@H]2[C@H](O)[C@@H](O)[C@H]3OCO[C@H]3[C@@H]2O)cc1O` has an MIC of 12.5 µg/mL (≈ 30.8 µM).
`CCCCc1ccc(/C=C(\C)C(=O)N[C@@H]2[C@H](O)[C@@H](O)[C@H]3OCO[C@H]3[C@@H]2O)cc1` was tested, and the MIC was 12.5 µg/mL (≈ 31.9 µM).
`CCCNc1ccc(/C=C(\C)C(=O)N[C@@H]2[C@H](O)[C@@H](O)[C@H]3OCO[C@H]3[C@@H]2O)cc1O` showed an MIC of 12.5 µg/mL (≈ 30.6 µM).

What follows are molecules tested on Brachyspira hyodysenteriae (assay: In vitro antibacterial activity against Serpulina (Treponema) hyodysenteriae was tested and is expressed as minimum inhibitory concentration: Value ranges from (3.13-6.25 ug/mL)).
Type: functional
With `CCCCc1ccc(/C=C(\C)C(=O)N[C@@H]2[C@H](O)[C@@H](O)[C@H]3OCO[C@H]3[C@@H]2O)cc1O` the MIC was 3.13 µg/mL (≈ 7.68 µM).
With `C/C(=C\c1ccc(OCc2cccs2)c(O)c1)C(=O)N[C@@H]1[C@H](O)[C@@H](O)[C@H]2OCO[C@H]2[C@@H]1O` the MIC was 3.13 µg/mL (≈ 6.75 µM).

These molecules were tested on Brachyspira hyodysenteriae (assay: In vitro antibacterial activity against Serpulina (Treponema) hyodysenteriae was tested and is expressed as minimum inhibitory concentration: Value ranges from (50-100 ug/mL)).
Type: functional
For `C/C(=C\c1ccc(OCCO)c(O)c1)C(=O)N[C@@H]1[C@H](O)[C@@H](O)[C@H]2OCO[C@H]2[C@@H]1O`, the MIC was 50 µg/mL (≈ 122 µM).

These molecules were tested on Brachyspira hyodysenteriae (assay: In vitro antibacterial activity against Serpulina (Treponema) hyodysenteriae was tested and is expressed as minimum inhibitory concentration: Value ranges from (6.25-12.5 ug/mL)).
Type: functional
Molecule `COc1ccc(/C=C(\C)C(=O)N[C@@H]2[C@H](O)[C@@H](O)[C@H]3OCO[C@H]3[C@@H]2O)cc1F` has an MIC of 6.25 µg/mL (≈ 16.3 µM).
